Values joined by “and” are separate entries in the source; they are usually repeats but may differ in a detail not shown here. Equal values may be shown once. Where a name gives a salt, the structure may show the parent alone. Read-outs that look alike come from different tables or passages of the source.
Experiments:
[1] = tested on: influenza A/Singapore/1/57 virus; experiment: microbe, parasite or virus in culture; assay type: cell-based
[2] = Toxicity (lethal effect, LD50) in rats; assay type: in vivo; settings: endogastrically, observation 14 days
Experimental: Determination of toxicity of 1-methyl-2-phenylthiomethyl-3-carbethoxy-5-oxy-6-bromindol sulfon as compared with arbidol.
The administration of the preparations was carried out endogastrically, the period of observation of the animals was 14 days.

[3] = tested on: influenza virus H3N2; assay type: in vivo, mice
[4] = Influenza A virus, MDCK, read-out: percent of inhibition of viral reproduction

## CCOC(=O)c1c(CSc2ccccc2)n(C)c2cc(Br)c(O)c(CN(C)C)c12 [Arbidol, 1-methyl-2-phenylthiomethyl-3-carbethoxy-4-dimethylaminomethyl-5-oxy-6-bromindol hydrochloride]
[1]; A or C 10 μg/ml alone (Oseltamivir 0), added 2 hours after infection
  Percent of inhibition of OD 490: 20%
[1]; A or D 1 μg/ml + Amantadin 0.3 μg/ml, added 30 min prior to infection
  Percent of inhibition of OD 490: 30%
[1]; A or D 1 μg/ml + Amantadin 1 μg/ml, added 30 min prior to infection
  Percent of inhibition of OD 490: 30%
[1]; A or D 1 μg/ml + Amantadin 5 μg/ml, added 30 min prior to infection
  Percent of inhibition of OD 490: 52%
[1]; A or D 1 μg/ml + Amantadin 10 μg/ml, added 30 min prior to infection
  Percent of inhibition of OD 490: 59%
[1]; A or D 1 μg/ml + Remantadin 0.3 μg/ml, added 30 min prior to infection
  Percent of inhibition of OD 490: 31%
[1]; A or D 1 μg/ml + Remantadin 1 μg/ml, added 30 min prior to infection
  Percent of inhibition of OD 490: 33%
[1]; A or D 1 μg/ml + Remantadin 5 μg/ml, added 30 min prior to infection
  Percent of inhibition of OD 490: 50%
[1]; A or D 1 μg/ml + Remantadin 10 μg/ml, added 30 min prior to infection
  Percent of inhibition of OD 490: 59%
[1]; A or D 1 μg/ml alone (Amantadin 0), added 30 min prior to infection
  Percent of inhibition of OD 490: 30%
[1]; A or D 1 μg/ml alone (Remantadin 0), added 30 min prior to infection
  Percent of inhibition of OD 490: 30%
[1]; A or D 5 μg/ml + Amantadin 0.3 μg/ml, added 30 min prior to infection
  Percent of inhibition of OD 490: 60%
[1]; A or D 5 μg/ml + Amantadin 1 μg/ml, added 30 min prior to infection
  Percent of inhibition of OD 490: 68%
[1]; A or D 5 μg/ml + Amantadin 5 μg/ml, added 30 min prior to infection
  Percent of inhibition of OD 490: 74%
[1]; A or D 5 μg/ml + Amantadin 10 μg/ml, added 30 min prior to infection
  Percent of inhibition of OD 490: 81%
[1]; A or D 5 μg/ml + Remantadin 0.3 μg/ml, added 30 min prior to infection
  Percent of inhibition of OD 490: 63%
[1]; A or D 5 μg/ml + Remantadin 1 μg/ml, added 30 min prior to infection
  Percent of inhibition of OD 490: 71%
[1]; A or D 5 μg/ml + Remantadin 5 μg/ml, added 30 min prior to infection
  Percent of inhibition of OD 490: 74%
[1]; A or D 5 μg/ml + Remantadin 10 μg/ml, added 30 min prior to infection
  Percent of inhibition of OD 490: 82%
[1]; A or D 5 μg/ml alone (Amantadin 0), added 30 min prior to infection
  Percent of inhibition of OD 490: 38%
[1]; A or D 5 μg/ml alone (Remantadin 0), added 30 min prior to infection
  Percent of inhibition of OD 490: 38%
[1]; A or D 10 μg/ml + Amantadin 0.3 μg/ml, added 30 min prior to infection
  Percent of inhibition of OD 490: 77%
[1]; A or D 10 μg/ml + Amantadin 1 μg/ml, added 30 min prior to infection
  Percent of inhibition of OD 490: 81%
[1]; A or D 10 μg/ml + Amantadin 5 μg/ml, added 30 min prior to infection
  Percent of inhibition of OD 490: 82%
[1]; A or D 10 μg/ml + Amantadin 10 μg/ml, added 30 min prior to infection
  Percent of inhibition of OD 490: 85%
[1]; A or D 10 μg/ml + Remantadin 0.3 μg/ml, added 30 min prior to infection
  Percent of inhibition of OD 490: 78%
[1]; A or D 10 μg/ml + Remantadin 1 μg/ml, added 30 min prior to infection
  Percent of inhibition of OD 490: 80%
[1]; A or D 10 μg/ml + Remantadin 5 μg/ml, added 30 min prior to infection
  Percent of inhibition of OD 490: 82%
[1]; A or D 10 μg/ml + Remantadin 10 μg/ml, added 30 min prior to infection
  Percent of inhibition of OD 490: 86%
[1]; A or D 10 μg/ml alone (Amantadin 0), added 30 min prior to infection
  Percent of inhibition of OD 490: 67%
[1]; A or D 10 μg/ml alone (Remantadin 0), added 30 min prior to infection
  Percent of inhibition of OD 490: 67%
[1]; Arbidol 3 μg/ml + Ribavirin 1 μg/ml
  percent of inhibition of viral reproduction: 19%
[1]; Arbidol 3 μg/ml + Ribavirin 3 μg/ml
  percent of inhibition of viral reproduction: 30%
[1]; Arbidol 3 μg/ml + Ribavirin 10 μg/ml
  percent of inhibition of viral reproduction: 52%
[1]; Arbidol 3 μg/ml + Ribavirin 15 μg/ml
  percent of inhibition of viral reproduction: 54%
[1]; Arbidol 10 μg/ml + Ribavirin 1 μg/ml
  percent of inhibition of viral reproduction: 26%
[1]; Arbidol 10 μg/ml + Ribavirin 3 μg/ml
  percent of inhibition of viral reproduction: 35%
[1]; Arbidol 10 μg/ml + Ribavirin 10 μg/ml
  percent of inhibition of viral reproduction: 85%
[1]; Arbidol 10 μg/ml + Ribavirin 15 μg/ml
  percent of inhibition of viral reproduction: 82%
[1]; Arbidol 15 μg/ml + Ribavirin 1 μg/ml
  percent of inhibition of viral reproduction: 43%
[1]; Arbidol 15 μg/ml + Ribavirin 3 μg/ml
  percent of inhibition of viral reproduction: 41%
[1]; Arbidol 15 μg/ml + Ribavirin 10 μg/ml
  percent of inhibition of viral reproduction: 82%
[1]; Arbidol 15 μg/ml + Ribavirin 15 μg/ml
  percent of inhibition of viral reproduction: 80%
[1]; Arbidol 20 μg/ml + Ribavirin 1 μg/ml
  percent of inhibition of viral reproduction: 65%
[1]; Arbidol 20 μg/ml + Ribavirin 3 μg/ml
  percent of inhibition of viral reproduction: 68%
[1]; Arbidol 20 μg/ml + Ribavirin 10 μg/ml
  percent of inhibition of viral reproduction: 80%
[1]; Arbidol 20 μg/ml + Ribavirin 15 μg/ml
  percent of inhibition of viral reproduction: 82%
[1]; [4]
  inhibition at 3 µg/mL: < 0%
  inhibition at 10 µg/mL: 23%
  inhibition at 15 µg/mL: 40%
  inhibition at 20 µg/mL: 55%
[1]; combination of 3 μg/ml of arbidol and 3.3 mg of zanamivir (oseltamivir), 2 hours after infection
  inhibition of the virus: 90%
[2]; Dose 100 mg/kg
  Lethal effect upon administration to rats: 0/6
[2]; Dose 250 mg/kg
  Lethal effect upon administration to rats: 0/6
[2]; Dose 500 mg/kg
  Lethal effect upon administration to rats: 1/6
[2]; Dose 1000 mg/kg
  Lethal effect upon administration to rats: 3/6
[2]; Dose 3000 mg/kg
  Lethal effect upon administration to rats: 6/6
[2]; rat, in vivo, oral, rats
  LD50 at 14 days: 1720 ± 70 mg/kg
[3]; Concentration 15
  Percent of surviving mice: 80%
[3]; Concentration 30, hydrochloride
  Percent of surviving mice: 80% and 60% and 70%

— patent US20090326037A1 (priority 2005, published 2009)
